Experimental data published in article PMC10732398 (PLOS Pathogens, 2023).

System: ⍺4β7
Test: SPR: inhibition by linear peptides of soluble ⍺4β7 binding to a gp120 V2 (cV2 92TH023) surface
Settings: Fig 7C, 7E
Description: To determine if this is the case, we employed an SPR -based assay. Biosensor surfaces were coated with either CD4 D1D2 or a 42 aa cyclic V2 peptide derived from the subtype E 92TH023 gp120 (cV2 92TH023). A third surface coated with MAdCAM-Ig was employed as a positive control. Soluble ⍺4β7 was passed over these surfaces. We then evaluated the capacity of staggered 15 aa peptides that span either CD4 D2 or gp120 V2 to inhibit this interaction (Fig 7A).
Fig 7 Reciprocal inhibition of gp120 V2 and CD4 binding to ⍺4β7 by D2 and V2 peptides. SPR measurements of soluble ⍺4β7 (analyte) binding to biosensor surfaces coated with CD4 D1D2, 92TH023 cyclic peptide, or MAdCAM-Ig in the absence or presence of either CD4 D2 or gp120 V2 peptides, as indicated. (A) List of overlapping 15 aa peptides corresponding to residues 157–187 of CD4 and residues 158–192 of gp120 V2 (subtype B consensus sequence). (B) Binding of ⍺4β7 to sCD4 D1D2 +/- CD4 D2 peptides. X-axis indicates ⍺4β7 mass bound (RU) at the end of the association phase. (C) Binding of ⍺4β7 to 92TH023 +/- gp120 V2 peptides. (D) Binding of ⍺4β7 to sCD4 D1D2 +/- gp120 V2 peptides. (E) Binding of ⍺4β7 to 92TH023 +/- CD4 D2 peptides. […]
Experiments were performed using a Biacore 3000 instrument (Cytiva Life Sciences) using CM4 or CM5 sensor chips. The data were evaluated using BIAevaluation 4.1.1 software (Cytiva Life Sciences). […]

Question: With “QKKVEFKIDIVVLA [CD4 P42, linear CD4 D2 peptide, residues 165-178, G β-strand]” as the sequence, how does the “inhibition of gp120 binding to ⍺4β7 (in words)” value read?
Answer: The value was “inhibits gp120 binding to ⍺4β7”.
